This note sets out measurements from ChEMBL document CHEMBL4396953, “Synthesis and highly potent anti-inflammatory activity of licofelone- and ketorolac-based 1-arylpyrrolizin-3-ones” (2019).

Common to all, as to assay type: functional
The subject of test [1] is Mus musculus. Kind of test: Antiinflammatory activity in CD1 mouse model of TPA-induced ear edema assessed as inhibition of ear edema at 2 mg/ear administered topically after TPA challenge for 30 mins and measured after 6 hrs post administration relative to control.
Test [2] concerns Mus musculus. Kind of test: Antiinflammatory activity in CD1 mouse model of TPA-induced ear edema assessed as ear edema formation at 2 mg/ear administered topically after TPA challenge for 30 mins and measured after 6 hrs post administration (reference value: 17.61 to 19.82 mg).
In test [3] the test system is Mus musculus. Description: Antiinflammatory activity in CD1 mouse model of TPA-induced ear edema assessed as inhibition of ear edema at 1 mg/ear administered topically after TPA challenge for 30 mins and measured after 6 hrs post administration relative to control.
For test [4], the system named is Mus musculus. Kind of test: Antiinflammatory activity in CD1 mouse model of TPA-induced ear edema assessed as inhibition of ear edema at 0.5 mg/ear administered topically after TPA challenge for 30 mins and measured after 6 hrs post administration relative to control.
The test system of test [5] is Mus musculus. Kind of test: Antiinflammatory activity in CD1 mouse model of TPA-induced ear edema assessed as reduction in ear edema formation administered topically after TPA challenge for 30 mins and measured after 6 hrs post administration.
The subject of test [6] is Mus musculus. Kind of test: Antiinflammatory activity in CD1 mouse model of TPA-induced ear edema assessed as ear edema formation at 1 mg/ear administered topically after TPA challenge for 30 mins and measured after 6 hrs post administration (reference value: 17.61 to 19.82 mg).
In test [7] the test system is Mus musculus. Kind of test: Antiinflammatory activity in CD1 mouse model of TPA-induced ear edema assessed as ear edema formation at 0.5 mg/ear administered topically after TPA challenge for 30 mins and measured after 6 hrs post administration (reference value: 17.61 to 19.82 mg).
Test [8] deals with J774.A1. Kind of test: Antiinflammatory activity in mouse J774A.1 cells LPS-induced NO production at 25 ug/ml incubated for 2 hrs followed by LPS-stimulation measured after 24 hrs by Griess assay relative to control. For orientation: The Griess reaction detects nitrite, a stable product of nitric oxide.

As to `COC(=O)/C(=C\N(C)C)n1cccc1C=O`, the “inhibition (INH)” value in test [1] stood at 21.37%. In test [2], the Activity is recorded as 14.09 mg.

Take `COC(=O)C1=C(c2ccc([N+](=O)[O-])cc2)c2cccn2C1=O`: the “inhibition (INH)” value in test [3] amounted to 24.1%; in test [4], 8.52%; in test [1] it was 53.43%. Also, the Activity entry was “Dose-dependent effect” in test [5], 9.2 mg in test [2], 15.04 mg in test [6] and 18.13 mg in test [7]. Besides, the ED50 in test [5] was found to be 1.86 mg.

Regarding `COc1ccc2c(c1)c(CC(=O)O)c(C)n2C(=O)c1ccc(Cl)cc1` [INDOMETHACIN], the “inhibition (INH)” value in test [3] is given as 41.97 - 52.37%; in test [4], 32.12 - 41.44%; in test [1], 41.47 - 61.1%. In addition, the Activity entry was “Dose-dependent effect” in test [5]; 64.63% in test [8]; 6.99 to 10.49 mg in test [2]; 9.01 to 9.44 mg in test [6]; 1.22 to 11.51 mg in test [7]. The ED50 in test [5] lay in the range of 1.07 to 1.29 mg.

Consider `COC(=O)Cn1cccc1C=O`, for which the “inhibition (INH)” value in test [1] worked out at 33.73%. Besides, in test [2], the Activity is listed as 11.87 mg.

Turning to `COC(=O)C1=C(c2ccc(Br)cc2)c2cccn2C1=O`, the “inhibition (INH)” value in test [3] worked out at 29.73%; in test [4], 8.46%; in test [1] it was 40.88%. The Activity result in test [5] is “Dose-dependent effect”; in test [2], 11.72 mg; in test [6], 13.93 mg; in test [7] it was 18.14 mg. Further, the ED50 in test [5] worked out at 3.23 mg.
